Assay results as given in patent US20250003951A1, “METHOD AND COMPOSITION” (Oxford University Innovation Limited, priority 2021, published 2025).

What was measured:
Assay type in all cases: cell-based, human
[1] = tested on: peptide-responsive T cells from post-transplant blood; assay: Flow cytometry immunophenotyping of peptide-responsive T cells (IFNγ, TNFα, CD107a) after 12-day peptide culture and restimulation
Description: (§1) FIG. 3: Characterisation of GvL T cell responses. a) IFNγ ELISpot results following stimulation of post-transplant PB with GvL peptide+/−antibodies blocking HLA pan-class I (W6/32), pan-class II (Tü39), HLA-DR (L243), -DQ (Tü169) and -DP (B7/21). Negative control without peptide (DMSO). b) Flow cytometry with intracellular cytokine staining showing % T cells positive for IFNγ, TNFα, CD107a after treatment with peptide vs no treatment. […] The generic workflow established in Example 1 was used to identify the antigenic basis of GvL in further patients. In brief, mismatched peptides identified by in silico prediction and mass spectrometry for each patient were screened for their ability to activate donor-derived T cells taken from the patient post-allo-SCT, using IFNγ ELISpot assays. HLA restriction was investigated using IFNγ ELISpots with HLA-blocking antibodies. The nature and frequency of peptide-responsive T cells (i.e. cells producing cytokines (IFNγ, TNFα) and expression of the degranulation marker (CD107a) following peptide contact) were assessed by culturing post-transplant blood with peptide for 12 days and then stimulating with the peptide. Responses were assessed by flow cytometry.

[2] = tested on: donor-derived T cells taken from the patient post-allo-SCT; assay: IFNγ ELISpot with HLA-blocking antibodies (HLA restriction); details: for Restricting HLA allele: candidate alleles separated by /
Description: as §1

[3] = tested on: activated (IFNγ+) CD4+ or CD8+ T cells from post-transplant PBMCs; assay: IFNγ catch FACS sort and single cell RNA sequencing with V(D)J enrichment to identify antigen-specific TCR clones; details: figure legends FIG. 8-22; single cell V(D)J sequencing
Description: The following protocol was used to determine the sequence of TCRs recognising peptide 1 (SEQ ID NO: 1) or peptide 2 (SEQ ID NO: 2): • 1. Culture post-transplant blood with peptide (identified from IFNγ ELISpot screen) to enrich for antigen-specific T cells. • 2. After peptide stimulation, FACS sort activated (IFNγ+) T cells and control (IFNγ−) T cells. • 3. Single cell RNA sequencing with V (D) J enrichment. […]
The following protocol was used to determine the sequence of TCRs recognising the alloreactive peptide antigens set out in Table 3 above: • 1. Thaw post-transplant PBMCs from the patient from whom the peptide antigen was detected. Culture the cells with peptide, IL-2 and IL-7 for 12 days. • 2. Rest cells overnight. • 3. Stimulate cells with peptide for 6 hours. • 4. Stain cells for FACS using antibodies and IFNγ catch reagent. • 5. FACS sorting of activated (IFNγ+) CD4+ or CD8+ T cells and negative control (IFNγ−) populations. • 6. 10× Chromium single cell RNA sequencing with V (D) J enrichment.
T cells recognizing 18 of the 24 peptides set out in Table 3 (including PADI4) were detectable by FACS. Of these, 17 were detectable using IFNγ catch. Data are shown in Tables 4 and 5 below, and in FIGS. 8 to 23. In Table 5, clones were included that were (a) greater in size than the largest clone in the control repertoire, or (b)>10% of the repertoire, even if not larger than the largest clone in the control repertoire.

[4] = Table 3, post-transplant blood cultured with peptide 12 days, then restimulated
[5] = Table 3, IFNγ ELISpots with HLA-blocking antibodies

Sequence	CD4/CD8 responses [1, 4]	CD4/CD8 responses ([1]; Table 4)	Freq. of response (% IFNγ+ cells amongst CD4+ or CD8+ by FACS) ([1]; Table 4)	HLA restriction [2, 5]	Restricting HLA allele ([2]; Table 3)	HLA restriction ([2]; Table 4)	Frequency of response (% IFN* cells amongst CD4+ or CD8+ by FACS) [1, 4]	Size of expanded T cell clone in activated (IFNγ+) repertoire after peptide stimulation and IFNγ catch [3]
RFRRVSCFLRLGRSTLLELE (listed as Homo sapiens) [OX802-322]	CD4	CD4	3.23%	–	–	–	–	–
APISLSSFFNVSTLEREVTD (listed as Homo sapiens) [OX747-185]	Likely CD4	Likely CD4	Not detected	HLA-DR	DRB1*04:04:01/DRB1*13:02:01/DRB3*03:01/DRB4*01:03	HLA-DR	Not detected	–
ITVQTVYVQHLITFLDRPIQ (listed as Homo sapiens) [OX628-80]	CD4	CD4	2.36%	HLA-DR	DRB1*03:01/DRB1*15:01/DRB3*01:01/04/DRB5*01:01:01	HLA-DR	–	–
LGSLGLIFALTLNRHKYPLN (listed as Homo sapiens) [OX747-157]	CD4	CD4	0.325%	–	–	–	–	–
PLYRQRYQFIKNLVDQHEPK (listed as Homo sapiens) [OX289-074]	CD4	CD4	0.24%	–	–	–	–	–
PGLISMFSSSQELGAALAQL (listed as Homo sapiens) [OX628-564]	Indeterminate	–	Not detected	–	–	–	Not detected	–
MNYVSKRLPFAARLNTPMGP (listed as Homo sapiens) [OX1098-614]	Indeterminate	Likely CD4	Not detected	Indeterminate	–	HLA-DP	Not detected	–
NPLSPYLNVDPRYLVQDT (listed as Homo sapiens) [OX289-180]	CD4	CD4	0.98%	Likely HLA-DR	DRB1*03:01/DRB1*07:01:01/DRB3*02:02/05/11/13/14/17-23/DRB4*01:01-05/07	HLA-DR	–	–
WRVRIALALKGIDYETVPIN (listed as Homo sapiens) [OX885-559]	CD4	CD4	0.83%	–	–	–	–	96.5%
LGLIFALTLNRHKYPLNLYL (listed as Homo sapiens) [OX747-158]	CD4	CD4	0.45%	–	–	–	–	–
KALLKRLLKGMQKKRPSDVQ (listed as Homo sapiens) [OX993-414]	Likely CD4	CD4	0.4%	HLA-DR	DRB1*01:01/DRB1*11:01/DRB3*02:02/28/29N	HLA-DR	–	–
VPREYVRALNATKLERVFAK (listed as Homo sapiens) [OX628-305]	Indeterminate	–	Not detected	Indeterminate	–	–	Not detected	–
EKFNRGIRKLGITPEGQSYL (listed as Homo sapiens) [OX628-309]	CD4	CD4	1.06%	–	–	–	–	76.1%
TDRALQNKSISAFLVPMPTP (listed as Homo sapiens) [OX289-205]	CD4	CD4	0.89%	–	–	–	–	–
QTVYVQHLITFLDRPIQMCC (listed as Homo sapiens) [OX628-81]	CD4	CD4	1.12%	HLA-DR	DRB1*03:01/DRB1*15:01/DRB3*01:01/04/DRB5*01:01:01	HLA-DR	–	–
GQKSPRFRRVSCFLRLGRST (listed as Homo sapiens) [OX802-321]	CD4	CD4	5.47%	–	–	–	–	–
PPLYRQRYQFIKNLVDQHEP (listed as Homo sapiens) [OX289-073]	CD4	CD4	0.36%	–	–	–	–	–
TQRSVLLCKVVGARGVGKSA (listed as Homo sapiens) [OX813-101]	Indeterminate	–	Not detected	Indeterminate	–	–	Not detected	–
LELGAGTGLASIIAATMART (listed as Homo sapiens) [OX747-190]	Likely CD4	Likely CD4	Not detected	HLA-DR	DRB1*04:04:01/DRB1*13:02:01/DRB3*03:01/DRB4*01:03	HLA-DR	Not detected	–
KVVGARGVGKSAFLQAFLGR (listed as Homo sapiens) [OX813-102]	Indeterminate	–	Not detected	Indeterminate	–	–	Not detected	–
LHRDKALLKRLLKGMQKKRP (listed as Homo sapiens) [OX993-413]	Likely CD4	CD4	0.4%	HLA-DR	DRB1*01:01/DRB1*11:01/DRB3*02:02/28/29N	HLA-DR	–	–
AGTGLASIIAATMARTVYCT (listed as Homo sapiens) [OX747-191]	Likely CD4	Likely CD4	Not detected	HLA-DR	DRB1*04:04:01/DRB1*13:02:01/DRB3*03:01/DRB4*01:03	HLA-DR	Not detected	–
VSRPELLRESISAFLVPMPT (listed as Homo sapiens) [OX289-075]	CD4	CD4	1.33%	–	–	–	–	–
